PubChem BioAssay (NCI)
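96-well plates; 48 h exposure; 5 concentrations. Endpoints by linear interpolation between flanking doses. Not reached: highest tested concentration assigned. GI50 is the concentration that inhibits growth by half. TGI is the concentration that stops growth completely.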

Legend:
Assay in all cases: NCI anticancer screen, dose series, 48 h
SNB-75 CNS = test system: SNB-75 CNS
RXF 393 renal = test system: RXF 393 renal
SF-295 CNS = test system: SF-295 CNS
TK-10 renal = test system: TK-10 renal
SW-620 colon = test system: SW-620 colon
NCI-H23 lung = test system: NCI-H23 lung
MOLT-4 leukemia = test system: MOLT-4 leukemia
DU-145 prostate = test system: DU-145 prostate
MDA-MB-231 breast = test system: MDA-MB-231 breast
MDA-MB-435 = test system: MDA-MB-435

Row | SMILES | TGI (SNB-75 CNS) | TGI (RXF 393 renal) | TGI (SF-295 CNS) | TGI (TK-10 renal) | TGI (SW-620 colon) | TGI (NCI-H23 lung) | TGI (MOLT-4 leukemia) | TGI (DU-145 prostate) | TGI (MDA-MB-231 breast) | TGI (MDA-MB-435) | GI50 (SNB-75 CNS) | GI50 (DU-145 prostate) | GI50 (MOLT-4 leukemia) | GI50 (SF-295 CNS) | GI50 (TK-10 renal) | GI50 (SW-620 colon) | GI50 (MDA-MB-231 breast) | GI50 (NCI-H23 lung) | GI50 (MDA-MB-435) | GI50 (RXF 393 renal)
1 | O=C(N/N=C/c1cc(-c2ccccc2Cl)c(-c2ccccc2Cl)o1)c1ccncc1 | > 100 µM | > 100 µM | > 100 µM | > 100 µM | > 100 µM | > 100 µM | – | – | – | – | – | – | – | – | – | – | – | – | – | –
2 | CC(=O)OC12CCCCC1C1(CCCC1)NC2=O (stereo unspecified) | > 100 µM | > 100 µM | > 100 µM | > 100 µM | > 100 µM | > 100 µM | > 100 µM | – | – | – | – | – | – | – | – | – | – | – | – | –
3 | CCCC1C2=C(C(=O)OC2=O)C2C(CC)CC3=C(C(=O)OC3=O)C12 (stereo unspecified) | > 100 µM | – | > 100 µM | > 100 µM | > 100 µM | > 100 µM | > 100 µM | > 100 µM | > 100 µM | > 100 µM | – | – | – | – | – | – | – | – | – | –
4 | COc1cc(/C=C/C(=O)C(C)(C)C)cc(OC)c1OC | 68.5 µM | 79.1 µM | > 100 µM | > 100 µM | 81.2 µM | 94.4 µM | > 100 µM | – | – | – | – | – | – | – | – | – | – | – | – | –
5 | O=C1[C@@H]2C3C=CC([C@H]4C(=O)N(CO)C(=O)[C@@H]34)[C@@H]2C(=O)N1CO | > 100 µM | > 77.8 µM | > 100 µM | > 100 µM | > 65.5 µM | > 100 µM | > 100 µM | – | – | – | – | – | – | – | – | – | – | – | – | –
6 | Cn1c([N+](=O)[O-])cnc1/C=C1\Oc2ccc(Cl)cc2C1=O | 2.27 µM | – | 5.65 µM | 2.77 µM | 0.66 µM | 4.47 µM | 3.32 µM | 1.32 µM | 4.64 µM | 1.95 µM | 0.63 µM | 0.402 µM | 0.32 µM | 1.72 µM | 1.04 µM | 0.181 µM | 0.783 µM | 0.652 µM | 0.354 µM | –
7 | CCCCCC1C2C(=O)NC(=O)C1C(=O)NC2=O (stereo unspecified) | > 100 µM | > 100 µM | > 100 µM | > 100 µM | > 100 µM | > 100 µM | > 100 µM | – | – | – | – | – | – | – | – | – | – | – | – | –
8 | O=C1c2cccc3cc4ccccc4c(c23)C(=O)N1CCCNCCNCCCN1C(=O)c2cccc3cc4ccccc4c(c23)C1=O | 1.48 µM | 1.58 µM | 1.64 µM | 2.18 µM | – | 1.77 µM | 1.36 µM | 2.04 µM | 1.66 µM | 1.73 µM | – | – | – | – | – | – | – | – | – | –
9 | CN(C)CCCn1c2c(c3ccc([N+](=O)[O-])cc3c1=O)C(=O)c1ccccc1-2 | 19.3 µM | – | > 100 µM | 73.7 µM | > 100 µM | 24.2 µM | > 100 µM | 29.8 µM | 38.1 µM | > 100 µM | 5.24 µM | 5.61 µM | 0.696 µM | 8.63 µM | 15.3 µM | 5.7 µM | 15.9 µM | 4.95 µM | > 100 µM | –
10 | N#CC1=C(N)Oc2c(ccc3ccccc23)C1c1ccccc1Cl (stereo unspecified) | 2.95 µM | 18.6 µM | 11.3 µM | 44.1 µM | 14.7 µM | 17.3 µM | 17.8 µM | 12.3 µM | 14.6 µM | – | 0.163 µM | 0.432 µM | 0.447 µM | 0.233 µM | 4.95 µM | 0.172 µM | 0.571 µM | 0.474 µM | – | 0.238 µM
